In brackets after ≈: the same amount, converted by molar mass.
What was measured:
S. aureus VRSA = assay: MIC, broth microdilution, vancomycin-resistant S. aureus (VRSA); type: cell-based, Staphylococcus aureus; details: for MIC: Staphylococcus aureus VRSA, read-out: MIC; for MIC-fold improvement vs. vancomycin: VRSA, ratio of MIC of vancomycin and MIC of analogue
Method in brief: (§1)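 CLSI broth microdilution; water and uninoculated-broth controls; one arm supplemented with vancomycin, final 10 μM, given with analogue or control antibiotic.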

E. faecalis VRE 37 = assay: MIC, broth microdilution, vancomycin-resistant E. faecalis VRE 37 (VanA); type: cell-based, Enterococcus faecalis; details: Enterococcus faecalis VRE 37 (vancomycin-resistant); read-out: MIC
Method in brief: as §1

[1] = test system: human T-lymphocyte (CEM) cells; assay: Cytostatic activity, CEM cell proliferation; type: cell-based; details: mean ± SD of three experiments; highest concentration tested 250 µM; 3 days; read-out: Toxicity (IC50) CEM
Method in brief: (§2)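 Coulter counter cell counts after 37°C culture with compound; IC50 = concentration giving 50% growth inhibition vs negative control. Incubation: L1210 2 d, CEM 3 d, HeLa 4 d. Suspension density before mixing with an equal volume of dilution: 300,000–500,000 cells/mL.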

E. faecalis VRE 29 = assay: MIC, broth microdilution, vancomycin-resistant E. faecalis VRE 29 (VanA); type: cell-based, Enterococcus faecalis; details: for MIC: Enterococcus faecalis VRE 29 (vancomycin-resistant), read-out: MIC; for MIC-fold improvement vs. vancomycin: VRE 29, ratio of MIC of vancomycin and MIC of analogue
Method in brief: as §1

[2] = test system: S. aureus VSSA (ATCC 6538); assay: MIC, broth microdilution, vancomycin-sensitive S. aureus (VSSA/MSSA, ATCC 6538); type: cell-based, Staphylococcus aureus; details: for MIC: Staphylococcus aureus VSSA, read-out: MIC; for MIC-fold improvement vs. vancomycin: VSSA, ratio of MIC of vancomycin and MIC of analogue
Method in brief: as §1

MRSA KS2 = assay: MIC, broth microdilution, MRSA KS2; type: cell-based, Staphylococcus aureus; details: for MIC-fold improvement vs. vancomycin: MRSA KS2, ratio of MIC of vancomycin and MIC of analogue; for MIC: Staphylococcus aureus MRSA KS2, read-out: MIC
Method in brief: as §1

[3] = test system: human cervix carcinoma (HeLa) cells; assay: Cytostatic activity, HeLa cell proliferation; type: cell-based; details: mean ± SD of three experiments; highest concentration tested 250 µM; 4 days; read-out: Toxicity (IC50) HeLa
Method in brief: as §2

S. aureus VISA/HIP5827 = assay: MIC, broth microdilution, vancomycin-intermediate S. aureus VISA HIP5827; type: cell-based, Staphylococcus aureus; details: for MIC: Staphylococcus aureus VISA/HIP5827, read-out: MIC; for MIC-fold improvement vs. vancomycin: VISA/HIP5827, ratio of MIC of vancomycin and MIC of analogue
Method in brief: as §1

MRSA KS89 = assay: MIC, broth microdilution, MRSA KS89; type: cell-based, Staphylococcus aureus; details: for MIC-fold improvement vs. vancomycin: MRSA KS8, ratio of MIC of vancomycin and MIC of analogue; for MIC: Staphylococcus aureus MRSA KS8, read-out: MIC
Method in brief: as §1

MRSA KS6 = assay: MIC, broth microdilution, MRSA KS6; type: cell-based, Staphylococcus aureus; details: for MIC-fold improvement vs. vancomycin: MRSA KS6, ratio of MIC of vancomycin and MIC of analogue; for MIC: Staphylococcus aureus MRSA KS6, read-out: MIC
Method in brief: as §1

MRSA KS1 = assay: MIC, broth microdilution, MRSA KS1; type: cell-based, Staphylococcus aureus; details: for MIC-fold improvement vs. vancomycin: MRSA KS1, ratio of MIC of vancomycin and MIC of analogue; for MIC: Staphylococcus aureus MRSA KS1, read-out: MIC
Method in brief: as §1

E. faecalis VSE 1 = assay: MIC, broth microdilution, vancomycin-sensitive E. faecalis (VSE 1); type: cell-based, Enterococcus faecalis; details: for MIC: Enterococcus faecalis VSE 1 (vancomycin-sensitive), read-out: MIC; for MIC-fold improvement vs. vancomycin: VSE 1, ratio of MIC of vancomycin and MIC of analogue
Method in brief: as §1

[4] = test system: L1210, CEM and HeLa cell lines; assay: Cytostatic activity, average or summary over L1210, CEM and HeLa; type: cell-based; details: average of L1210, CEM and HeLa; read-out: Toxicity (IC50) Average
Method in brief: as §2

[5] = test system: Murine leukemia (L1210) cells; assay: Cytostatic activity, L1210 cell proliferation; type: cell-based; details: mean ± SD of three experiments; highest concentration tested 250 µM; 2 days; read-out: Toxicity (IC50) L1210
Method in brief: as §2

E. faecalis VRE 6 = assay: MIC, broth microdilution, vancomycin-resistant E. faecalis VRE 6 (VanA); type: cell-based, Enterococcus faecalis; details: for MIC: Enterococcus faecalis VRE 6 (vancomycin-resistant), read-out: MIC; for MIC-fold improvement vs. vancomycin: VRE 6, ratio of MIC of vancomycin and MIC of analogue
Method in brief: as §1

E. faecalis VRE 53 = assay: MIC, broth microdilution, vancomycin-resistant E. faecalis VRE 53 (VanA); type: cell-based, Enterococcus faecalis; details: for MIC: Enterococcus faecalis VRE 53 (vancomycin-resistant), read-out: MIC; for MIC-fold improvement vs. vancomycin: VRE 53, ratio of MIC of vancomycin and MIC of analogue
Method in brief: as §1

MIC (S. aureus VRSA) [µM] | MIC-fold improvement vs. vancomycin (S. aureus VRSA) | MIC (E. faecalis VRE 37) [µM] | MIC (E. faecalis VRE 29) [µM] | MIC-fold improvement vs. vancomycin (E. faecalis VRE 29) | MIC [2] [µM] | MIC-fold improvement vs. vancomycin [2] | MIC-fold improvement vs. vancomycin (MRSA KS2) | MIC (MRSA KS2) [µM] | MIC (S. aureus VISA/HIP5827) [µM] | MIC-fold improvement vs. vancomycin (S. aureus VISA/HIP5827) | MIC-fold improvement vs. vancomycin (MRSA KS89) | MIC (MRSA KS89) [µM] | MIC-fold improvement vs. vancomycin (MRSA KS6) | MIC (MRSA KS6) [µM] | MIC-fold improvement vs. vancomycin (MRSA KS1) | MIC (MRSA KS1) [µM] | MIC (E. faecalis VSE 1) [µM] | Compound | IC50 [1] [µM] | IC50 [3] [µM] | other results
25 (≈ 39.5 µg/mL) | 4 | 25 (≈ 39.5 µg/mL) | 25 (≈ 39.5 µg/mL) | 16 | 0.78 (≈ 1.23 µg/mL) | 1 | 1 | 0.78 (≈ 1.23 µg/mL) | 0.78 (≈ 1.23 µg/mL) | 8 | 1 | 0.78 (≈ 1.23 µg/mL) | 1 | 0.78 (≈ 1.23 µg/mL) | 1 | 0.78 (≈ 1.23 µg/mL) | 0.78 (≈ 1.23 µg/mL) | CN[C@H](CC(C)C)C(=O)N[C@H]1C(=O)N[C@@H](CC(N)=O)C(=O)N[C@H]2C(=O)N[C@H]3C(=O)N[C@H](C(=O)N[C@H](C(=O)NCC(=O)Nc4ccccc4)c4cc(O)cc(O)c4-c4cc3ccc4O)[C@H](O)c3ccc(c(Cl)c3)Oc3cc2cc(c3O[C@@H]2O[C@H](CO)[C@@H](O)[C@H](O)[C@H]2O[C@H]2C[C@](C)(N)[C@H](O)[C@H](C)O2)Oc2ccc(cc2Cl)[C@H]1O [Vanc-3] | > 250 | > 250 | MIC-fold improvement vs. vancomycin (E. faecalis VSE 1): 2; IC50 [4]: > 250 µM; IC50 [5]: > 250 µM; MIC (E. faecalis VRE 6): 12.5 µM (≈ 19.8 µg/mL); MIC-fold improvement vs. vancomycin (E. faecalis VRE 6): 16; MIC (E. faecalis VRE 53): 25 µM (≈ 39.5 µg/mL); MIC-fold improvement vs. vancomycin (E. faecalis VRE 53): 16
0.39 (≈ 0.704 µg/mL) | 256 | 12.5 (≈ 22.6 µg/mL) | 6.25 (≈ 11.3 µg/mL) | 64 | 0.20 (≈ 0.361 µg/mL) | 4 | 4 | 0.20 (≈ 0.361 µg/mL) | 0.78 (≈ 1.41 µg/mL) | 8 | 2 | 0.39 (≈ 0.704 µg/mL) | 2 | 0.39 (≈ 0.704 µg/mL) | 2 | 0.39 (≈ 0.704 µg/mL) | 0.39 (≈ 0.704 µg/mL) | CN[C@H](CC(C)C)C(=O)N[C@H]1C(=O)N[C@@H](CC(N)=O)C(=O)N[C@H]2C(=O)N[C@H]3C(=O)N[C@H](C(=O)N[C@H](C(=O)NCC(=O)Nc4ccc(NS(=O)(=O)c5ccc(Cl)cc5Cl)cc4)c4cc(O)cc(O)c4-c4cc3ccc4O)[C@H](O)c3ccc(c(Cl)c3)Oc3cc2cc(c3O[C@@H]2O[C@H](CO)[C@@H](O)[C@H](O)[C@H]2O[C@H]2C[C@](C)(N)[C@H](O)[C@H](C)O2)Oc2ccc(cc2Cl)[C@H]1O [Vanc-61] | ≥ 250 | 87 ± 37 | MIC-fold improvement vs. vancomycin (E. faecalis VSE 1): 4; IC50 [4]: 196 µM; IC50 [5]: ≥ 250 µM; MIC (E. faecalis VRE 6): 3.13 µM (≈ 5.65 µg/mL); MIC-fold improvement vs. vancomycin (E. faecalis VRE 6): 64; MIC (E. faecalis VRE 53): 6.25 µM (≈ 11.3 µg/mL); MIC-fold improvement vs. vancomycin (E. faecalis VRE 53): 64

Compound | MIC (S. aureus VRSA) [µM] | MIC-fold improvement vs. vancomycin (S. aureus VRSA) | MIC (E. faecalis VRE 37) [µM] | MIC (E. faecalis VRE 29) [µM] | MIC-fold improvement vs. vancomycin (E. faecalis VRE 29) | MIC [2] [µM] | MIC-fold improvement vs. vancomycin [2] | MIC-fold improvement vs. vancomycin (MRSA KS2) | MIC (MRSA KS2) [µM] | MIC (S. aureus VISA/HIP5827) [µM] | MIC-fold improvement vs. vancomycin (S. aureus VISA/HIP5827) | MIC-fold improvement vs. vancomycin (MRSA KS89) | MIC (MRSA KS89) [µM] | MIC-fold improvement vs. vancomycin (MRSA KS6) | MIC (MRSA KS6) [µM] | MIC-fold improvement vs. vancomycin (MRSA KS1) | MIC (MRSA KS1) [µM] | MIC (E. faecalis VSE 1) [µM] | IC50 [1] [µM] | IC50 [3] [µM] | other results
CNC(CC(C)C)C(=O)NC1C(=O)NC(CC(N)=O)C(=O)NC2C(=O)NC3C(=O)NC(C(=O)NC(C(=O)NCCCNC(=O)c4ccc(-c5ccccc5)cc4)c4cc(O)cc(O)c4-c4cc3ccc4O)C(O)c3ccc(c(Cl)c3)Oc3cc2cc(c3OC2OC(CO)C(O)C(O)C2OC2CC(C)(N)C(O)C(C)O2)Oc2ccc(cc2Cl)C1O (stereo not drawn) [Vanc-33] | 0.78 (≈ 1.31 µg/mL) | 128 | 12.5 (≈ 21.1 µg/mL) | 6.25 (≈ 10.5 µg/mL) | 64 | 0.20 (≈ 0.337 µg/mL) | 4 | 4 | 0.20 (≈ 0.337 µg/mL) | 0.20 (≈ 0.337 µg/mL) | 32 | 2 | 0.39 (≈ 0.657 µg/mL) | 2 | 0.39 (≈ 0.657 µg/mL) | 2 | 0.39 (≈ 0.657 µg/mL) | 0.20 (≈ 0.337 µg/mL) | 78 ± 16 | 84 ± 8 | MIC-fold improvement vs. vancomycin (E. faecalis VSE 1): 8; IC50 [4]: 73 µM; IC50 [5]: 57 ± 20 µM; MIC (E. faecalis VRE 6): 1.56 µM (≈ 2.63 µg/mL); MIC-fold improvement vs. vancomycin (E. faecalis VRE 6): 128; MIC (E. faecalis VRE 53): 25 µM (≈ 42.1 µg/mL); MIC-fold improvement vs. vancomycin (E. faecalis VRE 53): 16
